Measurements taken from EP4653444A1, “FUSED TRICYCLIC COMPOUND AS KINASE INHIBITOR” (Hangzhou Innogate Pharma Co., Ltd., priority 2023, dated 2024).
Like-named read-outs stand apart in the source and are kept apart here.

Columns and labels:
[1] = target: T1, FAK kinase (Homo sapiens, UniProt Q05397); test: FAK kinase activity inhibition assay, method A (HTRF) and method B (Lantha screen); assay type: biochemical
Protocol: (§1) The HTRF method was used to evaluate the inhibitory activity of the compounds against FAK kinase. […]. The reaction conditions were: FAK kinase at 0.1 ng/µL; ATP 10 µM; substrate concentration 1 µM. Compounds were serially diluted in DMSO and shaken on a shaker for 20 minutes. Prepare 2× kinase using 1× reaction buffer. Transfer 25 nL compound to a 384-well plate using Echo 655. Add 2.5 µL kinase per well. Seal the plate with sealing film, centrifuge at 1000 rpm for 60 seconds, and incubate at 25°C for 12 hours. Prepare 2× ATP/substrate mix using 1× enzyme reaction buffer and add 2.5 µL 2× ATP/substrate mix per well. Seal the plate with sealing film, centrifuge at 1000 rpm for 60 seconds, and incubate at 25°C for 50 minutes. Prepare 2×XL665 & antibody solution using HTRF detection buffer, and add 5 µL per well. Incubate at 25°C for 60 minutes. Read fluorescence at 620 nm (Cryptate) and 665 nm (XL665). Calculate the ratio per well (Ratio_665/620 nm). % Inhibition = 100% - [(Compound Ratio - Positive Control Ratio)/ (Negative Control Ratio - Positive Control Ratio)] × 100%. IC50 values (half-maximal inhibitory concentration) were calculated by nonlinear regression using GraphPad Prism 7.0. Y = Bottom + (Top - Bottom)/ (1 + 10^ ((LogIC50 - X) × Hill Slope)), where X is the log of compound concentration and Y is the % inhibition.
The Lantha screen assay was used to evaluate the FAK kinase inhibitory activity. Compounds were dissolved in 100% DMSO at 10 mM stock concentration. Prepare 1× kinase buffer (25 mM HEPES, pH 7.5, 0.01 mM Triton, 0.5 mM EGTA, 0.01% Brij-35). Dilute compounds in a gradient, and transfer 5 µL compound into the reaction plate. Prepare 2× kinase solution with 1× Kinase buffer. Add 5 µL kinase solution to compound and positive control wells, and 5 µL 1× Kinase buffer to negative control wells. Mix reaction plate by shaking. Prepare 4× ATP/Fluorescein-polyGT substrate mix with 1× Kinase buffer. Add 2.5 µL substrate solution to initiate the reaction. Shake and incubate at room temperature for 30 minutes. Prepare 2× detection reagent (2 nM antibody, 10 mM EDTA) and add 10 µL per well to stop the reaction. Briefly centrifuge, mix, and incubate for 60 minutes. Read fluorescence at 340 nm excitation and 520 nm/495 nm emission using EnVision. Collect data and calculate 520 nm/495 nm ratio. Calculate the inhibition percentage using the formula: % Inhibition = (Max - Sample Ratio)/(Max - Min) × 100, where min is the mean of negative control wells (no enzyme activity), and max is the mean of positive control wells (DMSO-inhibited conversion rate).Use XLFit Excel add-in version 5.4.0.8 to determine the IC50 values of each compound against the enzyme activity: Y = Bottom + (Top - Bottom)/(1 + (IC50/X)^HillSlope).

[2] = target: T2, TNK1 kinase (Homo sapiens, UniProt Q13470); test: TNK1 kinase activity inhibition assay (ADP-Glo); assay type: biochemical
T2 sequence (Q13470 1-666): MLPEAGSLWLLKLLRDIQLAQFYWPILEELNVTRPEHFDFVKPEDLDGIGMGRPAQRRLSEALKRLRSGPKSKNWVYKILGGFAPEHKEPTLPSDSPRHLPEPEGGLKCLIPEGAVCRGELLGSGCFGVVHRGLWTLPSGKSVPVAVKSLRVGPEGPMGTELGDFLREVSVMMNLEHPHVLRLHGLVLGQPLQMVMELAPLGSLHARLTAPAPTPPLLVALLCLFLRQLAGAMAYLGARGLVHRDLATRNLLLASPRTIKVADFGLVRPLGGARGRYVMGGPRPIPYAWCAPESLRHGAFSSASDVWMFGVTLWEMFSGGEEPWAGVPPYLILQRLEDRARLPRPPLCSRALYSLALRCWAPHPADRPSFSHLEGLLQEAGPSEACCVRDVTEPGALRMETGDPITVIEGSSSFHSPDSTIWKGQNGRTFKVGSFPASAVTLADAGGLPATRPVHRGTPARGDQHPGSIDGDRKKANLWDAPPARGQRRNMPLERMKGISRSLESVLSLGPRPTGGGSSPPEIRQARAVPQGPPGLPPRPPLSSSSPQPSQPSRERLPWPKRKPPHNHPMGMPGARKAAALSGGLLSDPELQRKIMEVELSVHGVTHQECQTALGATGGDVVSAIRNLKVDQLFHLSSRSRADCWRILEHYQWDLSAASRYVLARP
Protocol: Measure compound inhibitory activity against TNK1 kinase using ADP-Glo Assay. 1× kinase reaction buffer was prepared (working concentrations: HEPES 50 mM, MgCl2 10 mM, Brij35 0.01%, EGTA 1 mM, DTT 2 mM). 2× kinase and 4× substrate buffers were prepared with the following working concentrations: For TNK1 kinase: kinase solution at 5 nM; substrate mixture containing ATP at 45 µM and MBP substrate at 0.1 mg/ mL. For ULK2 kinase: kinase solution at 0.15 nM; substrate mixture containing ATP at 6 µM and MBP substrate at 0.1 mg/mL. Compounds were serially diluted in DMSO and shaken on an orbital shaker for 20 minutes. 2× kinase solution was prepared using 1× kinase reaction buffer. 20 nL of compound solution was transferred to a 384-well plate. 2 µL of kinase solution was added to each well of the reaction plate. The plate was sealed with adhesive film, centrifuged at 1000 rpm for 60 seconds, and incubated at 25°C for 10 minutes. 2× ATP&MBP mixture was prepared using 1× kinase reaction buffer. 2 µL of 2× ATP&substrate mixture was added to the reaction plate. The plate was sealed with adhesive film, centrifuged at 1000 rpm for 60 seconds, and incubated at 25°C for 60 minutes. 4 µL of ADP-Glo reagent was transferred to the 384-well reaction plate, centrifuged at 1000 rpm for 1 minute, and incubated at 25°C for 40 minutes. 8 µL of Detection solution was transferred to the 384-well reaction plate, centrifuged at 1000 rpm for 1 minute, and incubated at 25°C for 40 minutes. Relative luminescence units (RLU) were measured using a BMG microplate reader, with signal intensity representing kinase activity level. The inhibition percentage was calculated as follows: % inhibition = 100% - [(Compound RLU - Positive Control RLU)/(Negative Control RLU - Positive Control RLU)] × 100%. The IC50 values (half-maximal inhibitory concentration) of compounds were determined by fitting the data to the following nonlinear regression equation using GraphPad Prism 7.0 software: Y = Bottom + (Top - Bottom)/(1 + 10^((LogIC50 - X) × Hill Slope)), where: X = log(compound concentration), Y = % inhibition. Table1: Inhibitory activity of compounds against ULK (IC50, nM)

[3] = Pharmacokinetic study in rats; conditions: rat, plasma, po, 3 mg/kg
Protocol: Pharmacokinetic parameters were calculated by statistical moment method using WinNonLin 8.0 software, mainly including Tmax, T1/2, Cmax and AUC0-24h.
Animals: Three male SD rats weighing 200-220 g were used. After purchase, they were housed in the laboratory animal center for 2 days before experiment. […] Blood samples were collected at scheduled time points after oral gavage.
Vehicle: 0.4% ethanol + 0.4% Tween 80 + 99.2% (0.5% methylcellulose M450). Preparation of oral gavage solution: The compound was accurately weighed and dissolved in vehicle by ultrasonication for 5 min at room temperature to prepare 0.3 mg/mL drug solution.
Single compound administration was also used to study pharmacokinetics in rats.
Blood sample collection: After oral gavage, blood samples were collected from orbital sinus at 0.25, 0.5, 1, 2, 4, 8, 10 and 24 h. 50 µL plasma was mixed with 200 µL acetonitrile (containing 2 ng/mL verapamil as internal standard). The mixture was vortexed for 3 min, then centrifuged at 20000 rcf for 10 min at 4 °C. The supernatant was analyzed by LC-MS/MS.
Standard curves were established by accurately weighing and preparing compounds at different concentrations for mass spectrometric quantification. Compound concentrations in plasma samples were determined based on standard curves to obtain concentration-time profiles. All measurement data were collected and processed by relevant software. Pharmacokinetic parameters (including Tmax, T1/2, Cmax and AUC0-24h) were calculated by statistical moment method.

[4] = target: T1, FAK kinase; test: FAK kinase activity inhibition assay, method A (HTRF); assay type: biochemical
Protocol: as §1

[5] = Table 4, read-out: FAK(method A and method B) (IC50)
[6] = Table 2, HTRF, ATP 10 µM, read-out: FAK (method A) (IC50)

T1 sequence (Q05397 whole entry): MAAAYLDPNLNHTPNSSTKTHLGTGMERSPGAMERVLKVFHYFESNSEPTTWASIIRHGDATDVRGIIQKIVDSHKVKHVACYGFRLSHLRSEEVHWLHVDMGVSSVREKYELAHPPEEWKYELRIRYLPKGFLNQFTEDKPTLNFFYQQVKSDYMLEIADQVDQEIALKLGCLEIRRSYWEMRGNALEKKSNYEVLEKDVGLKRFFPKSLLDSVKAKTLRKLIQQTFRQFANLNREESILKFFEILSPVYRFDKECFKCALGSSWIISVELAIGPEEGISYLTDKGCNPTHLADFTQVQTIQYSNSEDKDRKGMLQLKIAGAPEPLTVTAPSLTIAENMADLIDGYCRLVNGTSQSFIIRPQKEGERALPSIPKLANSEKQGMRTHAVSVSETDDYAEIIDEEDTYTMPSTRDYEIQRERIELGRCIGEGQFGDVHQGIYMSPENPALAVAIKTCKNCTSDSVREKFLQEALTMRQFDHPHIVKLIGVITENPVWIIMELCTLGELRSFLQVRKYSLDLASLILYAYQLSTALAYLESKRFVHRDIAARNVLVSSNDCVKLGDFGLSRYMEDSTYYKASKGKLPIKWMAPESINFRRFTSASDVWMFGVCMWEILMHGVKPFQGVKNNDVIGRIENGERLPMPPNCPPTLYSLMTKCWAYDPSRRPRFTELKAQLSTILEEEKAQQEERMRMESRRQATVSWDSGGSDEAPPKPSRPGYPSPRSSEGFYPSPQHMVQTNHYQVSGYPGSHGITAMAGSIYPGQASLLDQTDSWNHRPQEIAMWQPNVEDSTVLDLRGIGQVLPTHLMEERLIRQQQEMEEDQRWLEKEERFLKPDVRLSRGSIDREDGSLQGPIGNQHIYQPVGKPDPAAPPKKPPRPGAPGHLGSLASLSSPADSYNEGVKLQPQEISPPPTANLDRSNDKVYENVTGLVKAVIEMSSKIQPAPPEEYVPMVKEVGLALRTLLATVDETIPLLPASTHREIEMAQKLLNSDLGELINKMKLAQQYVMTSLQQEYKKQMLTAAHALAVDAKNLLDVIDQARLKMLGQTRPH

Row | SMILES | IC50 [1, 5] [nM] | IC50 [2] [nM] | AUC(0-t) at 24 h [3] [ng·h/mL] | Cmax [3] [ng/mL] | Tmax [3] [h] | half-life [3] [h] | IC50 [4] [nM] | IC50 [4, 6] [nM] | IC50 ([2]; Table 5, ATP 45 µM, read-out: TNK1 (IC50)) [nM] | IC50 ([1]; Table 3, read-out: FAK(method A and B) (IC50)) [nM] | IC50 [1] [nM]
1 | CCOc1cc2c(cc1Nc1cc(Nc3ccccc3C(=O)NC)c(C(F)(F)F)cn1)OC[C@@H]1CN(C3CCN(C)CC3)CCN21 [Compound D5S] | < 1 | – | – | – | – | – | – | – | – | – | –
2 | COc1cc2c(cc1Nc1ncc(Cl)c(Nc3cccnc3N3CCCC3=O)n1)OC[C@H]1CN(C)CCN21 [Compound E2R] | – | < 0.5 | 332 | 74.4 | 1 | 2.07 | – | – | – | – | –
3 | COc1cc2c(cc1Nc1ncc(C(F)(F)F)c(CCc3ccccc3CC(N)=O)n1)OC[C@H]1CN(C3CCN(C)CC3)CCN21 [Compound B2R] | – | – | 880 | 76.4 | 4.7 | 7.4 | < 0.5 | – | – | – | –
4 | CCN1CCC(N2CCN3c4cc(OC)c(Nc5ncc(Cl)c(Nc6cccnc6N6CCCC6=O)n5)cc4OC[C@H]3C2)CC1 [Compound E9R] | – | < 1 | 1200 | 71.6 | 9.33 | 14.5 | – | – | – | – | –
5 | COc1cc2c(cc1Nc1ncc(Cl)c(Nc3cccnc3N3CCCC3=O)n1)OC[C@H]1CN(C3CN(C)C3)CCN21 [Compound E8R] | – | < 2 | 3170 | 411 | 2 | 3.37 | – | – | – | – | –
6 | COc1cc2c(cc1Nc1ncc(C(F)(F)F)c(CCc3ccccc3CC(N)=O)n1)OC[C@H]1CN(C(C)=O)CCN21 [Compound B7R] | – | – | 1430 | 390 | 2 | 1.2 | < 0.5 | – | – | – | –
7 | COc1cc2c(cc1Nc1ncc(Cl)c(Nc3cccnc3N3CCCC3=O)n1)OC[C@H]1CN(C3CCOCC3)CCN21 [Compound E4R] | – | < 0.5 | 83.9 | 69 | 0.5 | 0.99 | – | – | – | – | –
8 | COc1cc2c(cc1Nc1ncc(Cl)c(Nc3cccnc3N3CCCC3=O)n1)OC[C@H]1CNCCN21 [Compound E1R] | – | < 0.5 | – | – | – | – | – | – | – | – | –
9 | COc1cc2c(cc1Nc1ncc(C(F)(F)F)c(CCc3ccccc3CC(N)=O)n1)OC[C@H]1CNCCN21 [Compound B3R] | – | – | 690 | 68.9 | 3.3 | 7.9 | – | < 0.5 | – | – | –
10 | COc1cc2c(cc1Nc1ncc(Cl)c(Nc3cccnc3N3CCCC3=O)n1)OC[C@H]1CN(C3CCN(C)CC3)CCN21 [Compound E3R] | – | – | – | – | – | – | – | – | < 0.5 | – | –
11 | CC(C)Oc1cc2c(cc1Nc1ncc(Cl)c(Nc3ccccc3S(=O)(=O)C(C)C)n1)OC[C@@H]1CN(C3CCN(C)CC3)CCN21 [Compound C3S] | – | – | – | – | – | – | – | – | – | < 5 | –
12 | CNC(=O)c1ccccc1Nc1cc(Nc2cc3c(cc2OC)N2CCN(C4COC4)C[C@H]2CO3)ncc1C(F)(F)F [Compound D3S] | < 1 | – | – | – | – | – | – | – | – | – | –
13 | CCc1cc2c(cc1Nc1ncc(C(F)(F)F)c(NCCCN3CCOCCC3=O)n1)OC[C@@H]1CN(C3CCN(C)CC3)CCN21 [Compound A2S] | – | – | 98 | 11.8 | 1.17 | 7.05 | – | – | – | – | –
14 | COc1cc2c(cc1Nc1ncc(Cl)c(Nc3cccnc3N3CCCC3=O)n1)OC[C@H]1CN(C(C)=O)CCN21 [Compound E5R] | – | < 0.5 | 1560 | 500 | 1 | 1.38 | – | – | – | – | –
15 | COc1cc2c(cc1Nc1ncc(Cl)c(Nc3cccnc3N3CCCC3=O)n1)OC[C@H]1CN(C3CCN(C(C)=O)CC3)CCN21 [Compound E11R] | – | < 1 | 8110 | 1090 | 1.33 | 4.36 | – | – | – | – | –
16 | CCC(=O)N1CCN2c3cc(OC)c(Nc4ncc(Cl)c(Nc5cccnc5N5CCCC5=O)n4)cc3OC[C@H]2C1 [Compound E6R] | – | < 1 | 581 | 352 | 0.5 | 1.05 | – | – | – | – | –
17 | COc1cc2c(cc1Nc1ncc(Cl)c(Nc3cccnc3N3CCCC3=O)n1)OC[C@H]1CN(C3CCN(C4CC4)CC3)CCN21 [Compound E10R] | – | < 0.5 | 2000 | 133 | 3.67 | 9.69 | – | – | – | – | –
18 | CNC(=O)c1ccccc1Nc1cc(Nc2cc3c(cc2OC(C)C)N2CCN(C4CCN(C)CC4)C[C@H]2CO3)ncc1C(F)(F)F [Compound D6S] | – | – | 675 | 52.3 | 6.67 | 5.74 | – | – | – | – | < 3
19 | COc1cc2c(cc1Nc1ncc(C(F)(F)F)c(CCc3ccccc3CC(N)=O)n1)OC[C@H]1CN(C3CCNCC3)CCN21 [Compound B10R] | – | – | – | – | – | – | – | < 0.5 | – | – | –
20 | COc1cc2c(cc1Nc1ncc(C(F)(F)F)c(CCc3ccccc3CC(N)=O)n1)OC[C@H]1CN(C3CCOCC3)CCN21 [Compound B4R] | – | – | 568 | 200 | 0.8 | 1.5 | < 0.5 | – | – | – | –
21 | COc1cc2c(cc1Nc1ncc(Cl)c(Nc3cccnc3N3CCCC3=O)n1)OC[C@H]1CN(C(=O)C3CC3)CCN21 [Compound E7R] | – | < 2 | 473 | 292 | 0.5 | 1.08 | – | – | – | – | –
22 | CNC(=O)c1ccccc1Nc1cc(Nc2cc3c(cc2OC)N2CCN(C4CCOCC4)C[C@H]2CO3)ncc1C(F)(F)F [Compound D1S] | – | – | 11000 | 2320 | 1.67 | 2.63 | – | – | – | – | < 0.5
